# Data taken from patent US5120830A, “Inhibitory peptides against α-2, β-1 mediated mg^++ dependent adhesion of platelets to collagen” (Washington University, priority 1990, dated 1992).
# Where no end group is shown, it is not given here.
# Molecular target: T1, α2 β1 integrin (Homo sapiens, UniProt P05556+P17301)
# T1 construct: Mg^++ -dependent adhesion of platelets, which use the α2 β1 integrin as a collagen specific receptor; endogenous in cells; host or cells: washed 51Cr-labelled platelets
# Experiment: Mg++-dependent adhesion of 51Cr-labeled platelets to type I collagen substrates, peptide inhibition
# Format: cell-based
# Description: Platelet Adhesion-Platelets were washed and labeled with ^51 CrO4 as described in detail by Haverstick et al (22). Platelet adhesion to substrate composed of 0.5% BSA or 20 μg/ml of either type I collagen, laminin or fibronectin in polystryene dishes was determined as previously described in detail (7). Alternately, adhesion assays were carried out in 96 well microtiter dishes (Immulon II, Dynatech). In this case substrate coating- and adhesion assay volumes were adjusted to 100 μl and wash volumes were adjusted to 140 μl per well. Platelets were permitted to adhere for 60 min at a concentration of 1.3-- to 1.8×10^8 platelets/ml, then wash five times in adhesion assay buffer before being lysed with two […] aliquots of 2% SDS which were subsequently pooled and counted.
# Peptide Inhibition--After labeling and washing, cells were resuspended at 2.6- to 3.6×10^5 /ml for platelets or 2×10^5 /ml for T47D cells. Aliquots were added to equal volumes of buffer containing appropriate concentrations of the peptides and divalent cations and preincubated for 15 min before being added to the adhesive substrates. Adhesion was quantitated as described above.
# T1 sequence (P17301 30-1181): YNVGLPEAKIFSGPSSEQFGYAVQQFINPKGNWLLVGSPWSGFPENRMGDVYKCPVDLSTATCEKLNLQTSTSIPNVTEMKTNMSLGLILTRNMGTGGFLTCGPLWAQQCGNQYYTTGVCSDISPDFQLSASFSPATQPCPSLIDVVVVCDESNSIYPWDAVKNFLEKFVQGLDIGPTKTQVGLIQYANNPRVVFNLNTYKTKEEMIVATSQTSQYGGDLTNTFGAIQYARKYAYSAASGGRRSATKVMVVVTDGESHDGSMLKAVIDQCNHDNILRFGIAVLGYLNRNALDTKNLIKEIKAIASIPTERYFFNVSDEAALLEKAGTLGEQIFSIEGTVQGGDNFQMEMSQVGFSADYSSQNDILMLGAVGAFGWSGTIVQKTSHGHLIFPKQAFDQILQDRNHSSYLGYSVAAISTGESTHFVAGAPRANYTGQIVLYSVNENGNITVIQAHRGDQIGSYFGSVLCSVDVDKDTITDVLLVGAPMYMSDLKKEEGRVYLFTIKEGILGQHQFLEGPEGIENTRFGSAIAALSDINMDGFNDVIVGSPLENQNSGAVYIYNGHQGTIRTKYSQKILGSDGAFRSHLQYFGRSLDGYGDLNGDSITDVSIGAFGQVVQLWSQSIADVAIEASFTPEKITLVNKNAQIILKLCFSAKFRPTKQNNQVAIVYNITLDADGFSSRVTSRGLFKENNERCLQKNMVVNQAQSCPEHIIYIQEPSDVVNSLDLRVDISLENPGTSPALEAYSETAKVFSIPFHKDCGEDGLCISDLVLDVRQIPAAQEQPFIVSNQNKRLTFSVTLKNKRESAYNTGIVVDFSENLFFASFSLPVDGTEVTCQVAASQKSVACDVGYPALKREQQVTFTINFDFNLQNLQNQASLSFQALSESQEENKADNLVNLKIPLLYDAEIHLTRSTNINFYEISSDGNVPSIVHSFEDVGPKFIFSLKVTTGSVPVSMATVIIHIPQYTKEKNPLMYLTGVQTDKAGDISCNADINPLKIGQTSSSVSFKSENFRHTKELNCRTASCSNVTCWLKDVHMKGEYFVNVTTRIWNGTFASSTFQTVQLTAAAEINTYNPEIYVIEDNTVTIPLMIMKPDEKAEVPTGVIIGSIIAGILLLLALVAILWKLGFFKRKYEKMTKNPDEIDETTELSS
# T1 sequence (P05556 21-798): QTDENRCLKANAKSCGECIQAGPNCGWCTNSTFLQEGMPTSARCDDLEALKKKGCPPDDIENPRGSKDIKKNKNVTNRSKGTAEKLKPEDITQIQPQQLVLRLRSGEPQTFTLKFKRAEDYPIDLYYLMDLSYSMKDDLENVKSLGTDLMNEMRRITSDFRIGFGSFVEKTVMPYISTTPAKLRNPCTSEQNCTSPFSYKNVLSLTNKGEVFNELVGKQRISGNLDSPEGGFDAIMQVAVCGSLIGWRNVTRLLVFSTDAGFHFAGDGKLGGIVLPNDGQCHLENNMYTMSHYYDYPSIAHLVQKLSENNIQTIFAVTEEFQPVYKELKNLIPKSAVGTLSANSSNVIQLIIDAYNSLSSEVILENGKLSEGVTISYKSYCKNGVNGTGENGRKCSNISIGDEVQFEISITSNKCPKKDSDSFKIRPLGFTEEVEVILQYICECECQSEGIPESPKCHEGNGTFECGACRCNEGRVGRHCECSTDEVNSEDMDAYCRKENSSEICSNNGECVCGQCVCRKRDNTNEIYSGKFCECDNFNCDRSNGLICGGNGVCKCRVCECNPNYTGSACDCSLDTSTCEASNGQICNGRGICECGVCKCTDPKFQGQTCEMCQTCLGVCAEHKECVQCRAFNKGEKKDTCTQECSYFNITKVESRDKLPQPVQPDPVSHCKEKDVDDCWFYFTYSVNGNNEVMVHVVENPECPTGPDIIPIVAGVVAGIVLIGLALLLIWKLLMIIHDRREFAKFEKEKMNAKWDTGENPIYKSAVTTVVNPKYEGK
Substance,Inhibitory activity in 1 mM Mg++ as percent of the activity observed in 6 mM Mg++ (1 mM Mg++ versus 6 mM Mg++) [%],"Inhibition of Mg++-dependent platelet adhesion to collagen (4 mM peptide, 2 mM Mg++) [%]",IC50 (read-out: Half-maximal inhibition of Mg++-dependent platelet adhesion to collagen) [µM]
KDGEA-NH2 [KDGEA],80,80,–
"GPAGKDGEAGAQG-NH2 [peptide 430, GPAGKDGEAGAQG]",–,–,2800
